Laboratory results as given in patent publication US20240400615A1, “PEPTIDE HAVING ANTI-OBESITY ACTIVITY AND USES THEREOF” (CAREGEN CO., LTD., priority 2021, published 2024).

Key:
Assay type in all cases: cell-based
HSL = assay: RT-PCR of lipolysis-related gene HSL in adipocytes; conditions: 3T3-L1 adipocytes, 5 μM and 50 μM peptide, 72 hours, GAPDH internal control
Procedure: (§1) First, in order to differentiate pre-adipocytes into adipocytes, pre-adipocytes and 3T3-L1 cells purchased from the American Type Culture Collection (ATCC) were cultured in DMEM including 2% fetal bovine serum (FBS). In order to differentiate 3T3-L1 cells into adipocytes, the culture was dispensed into a 12-well plate at a density of 1×10^5 cells/well, and 2 days after the time-point of achieving the confluent growth (day 0), the culture medium was replaced with DMEM medium including 10% FBS, 10 μg/mL insulin, 0.5 mM isobutylmethylxanthine (IBMX)(Sigma, USA), and 1 μM dexamethasone (Sigma. USA), and cultured. After 2 days (day 2), the culture medium was replaced with DMEM medium including 10% FBS and 10 μg/mL insulin and cultured, and 3 days thereafter (day 5), the culture medium was replaced with a medium including only 10% FBS Two days thereafter (day 7), the cells were named 3T3-L1 adipocytes and cultured under the conditions of 37° C., 5% CO2 environment. The adipocytes which were induced to differentiate for 10 days were used in subsequent experiments.
(§2) In adipocytes, in order to confirm whether the peptide of the present invention has the effect of activating the lipolysis-promoting cell signaling pathway. mRNA expression levels of HSL, ATGL, and perilipin1 genes associated with lipolysis promotion were examined. […]

ATGL = assay: RT-PCR of lipolysis-related gene ATGL in adipocytes; conditions: 3T3-L1 adipocytes, 5 μM and 50 μM peptide, 72 hours, GAPDH internal control
Procedure: as §1, §2

perilipin1 = assay: RT-PCR of lipolysis-related gene perilipin1 in adipocytes; conditions: 3T3-L1 adipocytes, 5 μM and 50 μM peptide, 72 hours, GAPDH internal control
Procedure: as §1, §2

pHSL = assay: Western blot of pHSL in adipocytes; conditions: 3T3-L1 adipocytes, 5 μM and 50 μM peptide, 1 hour, Western blot with anti-pHSL antibody
Procedure: as §1, with “The adipocytes which were induced to differentiate for 10 days were used in subsequent experiments.” left out
Specifically, the adipocytes differentiated in Preparation Example 1 were treated with 5 μM and 50 μM of the peptide of SEQ ID NO: 1, and after 1 hour, the cells were recovered and treated with a cell lysis buffer to obtain a lysate. Then, the protein was quantified and subjected to Western blotting using an anti-pHSL antibody (Cell Signaling Technology (CST), USA).

3T3-L1 adipocytes = assay: Glycerol colorimetric assay, free glycerol released from adipocytes; conditions: 5 μM and 50 μM peptide, 48 hours, supernatant
Procedure: as §1, with “The adipocytes which were induced to differentiate for 10 days were used in subsequent experiments.” left out
Specifically, adipocytes differentiated in Preparation Example 1 were treated with the peptide of SEQ ID NO: 1 at concentrations of 5 μM and 50 μM, and treated with 20 nM of TNFα, as a positive control, followed by culturing for 48 hours. After obtaining the supernatant, the amount of glycerol was measured using a glycerol colorimetric assay kit (Cayman Chemical, USA).

PGC1α = assay: RT-PCR of thermogenesis-related gene PGC1α in adipocytes; conditions: 3T3-L1 adipocytes, 5 μM and 50 μM peptide, 72 hours, GAPDH internal control
Procedure: as §1
(§3) In order to confirm whether the peptide of the present invention has the effect of preventing or treating obesity, the levels of mRNA expression of PGC1α1, Tbx1, FGF21, and UCP1, which are thermogenesis-related genes in brown adipocytes, were examined. […]

Tbx1 = assay: RT-PCR of thermogenesis-related gene Tbx1 in adipocytes; conditions: 3T3-L1 adipocytes, 5 μM and 50 μM peptide, 72 hours, GAPDH internal control
Procedure: as §1, §3

FGF21 = assay: RT-PCR of thermogenesis-related gene FGF21 in adipocytes; conditions: 3T3-L1 adipocytes, 5 μM and 50 μM peptide, 72 hours, GAPDH internal control
Procedure: as §1, §3

UCP1 [1] = assay: RT-PCR of thermogenesis-related gene UCP1 in adipocytes; conditions: 3T3-L1 adipocytes, 5 μM and 50 μM peptide, 72 hours, GAPDH internal control
Procedure: as §1, §3

PRDM16 = assay: Western blot of thermogenesis-related protein PRDM16 in adipocytes; conditions: 3T3-L1 adipocytes, 5 μM and 50 μM peptide, 24 hours
Procedure: as §1, with “The adipocytes which were induced to differentiate for 10 days were used in subsequent experiments.” left out
(§4) Specifically, the adipocytes obtained in Preparation Example 1 were treated with 5 μM and 50 μM of the peptide of SEQ ID NO: 1, respectively. […] Then, the protein was quantified and subjected to Western blotting was performed using an anti-PRDM16 antibody (Cell signaling technology (CST), USA) and an anti-UCP1 antibody (Abcam, England).

UCP1 [2] = assay: Western blot of thermogenesis-related protein UCP1 in adipocytes; conditions: 3T3-L1 adipocytes, 5 μM and 50 μM peptide, 24 hours
Procedure: as §1, with “The adipocytes which were induced to differentiate for 10 days were used in subsequent experiments.” left out
as §4

## DYNMKWIHVY [SEQ ID NO: 1]
HSL
  mRNA expression of HSL gene: increased
ATGL
  mRNA expression of ATGL gene: increased
perilipin1
  mRNA expression of perilipin1 gene: increased
pHSL
  phosphorylation of HSL protein: increased
3T3-L1 adipocytes
  amount of glycerol released: increased in a concentration-dependent manner
PGC1α
  mRNA expression of PGC1α gene: increased
Tbx1
  mRNA expression of Tbx1 gene: increased
FGF21
  mRNA expression of FGF21 gene: increased
UCP1 [1]
  mRNA expression of UCP1 gene: increased
PRDM16
  expression of PRDM16 protein: increased
UCP1 [2]
  expression of UCP1 protein: increased
